In PubChem BioAssay AID1062 (NMMLSC, 2008) one finds inhibition of disassembly and EC50 data, which are given here for 21 compounds.

The term EC50 denotes the concentration at which the effect is half-maximal.

SMILES strings stand for the structures. Activity calls are given as the source filed them.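 Rule for the calls: active = compounds blocking proteasome disassembly by more than 40% at the highest tested dose; inconclusive = compounds bright enough on their own to skew readings; inactive = the rest.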 Where a SMILES comes first, the peptide text is derived from it. The star is where a group is joined. Cbz = O=C(OCc1ccccc1)*

The target in the assay is 26S proteasome (lid disassembly, GFP-tagged; likely yeast). In words: blockers of ATP hydrolysis-driven proteasome lid dissociation – biochemical, bead-based flow cytometry, GFP-tagged lid, dose response (AID 1062). To be noted: GFP-proteasome beads; for inhibition of disassembly: at 100 µM (top of the series); for EC50: disassembly inhibition. In general terms: In flow cytometry, cells or beads pass a laser one at a time.

As for `CCOc1ccc(/C=c2\sc3nc(-c4ccco4)nn3c2=O)cc1OCC`, the inhibition of disassembly result was “inactive”.

For the compound `O=C(CN1C(=O)C2CCCN2c2ncc(Cl)cc21)NCc1ccc2c(c1)OCO2` (stereo unspecified), the EC50 result is “inactive”.

In the case of `COC(=O)[C@H]1[C@H]2C[C@@H]3c4[nH]c5cc(OC)ccc5c4CCN3C[C@H]2C[C@@H](OC(=O)c2cc(OC)c(OC)c(OC)c2)[C@@H]1OC`, the inhibition of disassembly entry was “inactive”.

Turning to `O=c1cc(Nc2ccc3c(c2)OCCO3)[nH]c(=O)n1C1CCCCC1`, the inhibition of disassembly entry was “inactive”.

For the compound `Fc1ccc2nc(Nc3nc4c(s3)CCCC4)sc2c1`, the inhibition of disassembly result was “inactive”.

With `COC(=O)C1=C(C)N=c2s/c(=C/c3cccs3)c(=O)n2C1c1cccs1` (stereo unspecified), the inhibition of disassembly result is “inactive”.

Regarding `Cc1cccc(NC(=O)c2sc3nc(-c4ccc(F)cc4)cn3c2C)n1`, the EC50 was 25.9 µM.

For the compound `COC(=O)c1ccc2c(c1)N(Cc1nc(-c3cccc(Cl)c3)oc1C)C(=O)C1CCCN21` (stereo unspecified), the inhibition of disassembly entry is “inactive”.

For the compound `N#Cc1cc2c(nc1SCC(=O)Nc1sc3c(c1C#N)CCC3)CCCCC2`, the inhibition of disassembly result is “inactive”.

As to `CC(C)C[C@@H](C=O)NC(=O)[C@H](CC(C)C)NC(=O)[C@H](CC(C)C)NC(=O)OCc1ccccc1` (Cbz-Leu-Leu-Leu-aldehyde), the inhibition of disassembly entry was “inactive”.

In the case of `Cc1ccc(C)c(N2CCN(S(=O)(=O)c3c(C)noc3/C=C/N(C)C)CC2)c1`, the inhibition of disassembly result is “inactive”.

Consider `O=C(Nc1ccccc1)C1=C(O)CC(c2ccco2)CC1=Nc1ccccc1` (stereo unspecified), for which the EC50 is > 100 µM (inactive).

Take `COC(=O)c1ccc2c(c1)N(Cc1nc(-c3ccc(Cl)cc3)oc1C)C(=O)C1CCCN21` (stereo unspecified): the EC50 is > 100 µM (inactive).

Regarding `Cc1noc(/C=C/c2ccco2)c1S(=O)(=O)N1CCC(C(=O)N2c3ccccc3CC2C)CC1` (stereo unspecified), the inhibition of disassembly result is “inactive”.

In the case of `CCCOc1ccc(/C=c2\sc3nc(-c4ccco4)nn3c2=O)cc1OCC`, the inhibition of disassembly result was “inactive”.

In the case of `Cc1noc(/C=C/c2ccco2)c1S(=O)(=O)N1CCC(C(=O)N(C)Cc2ccccc2)CC1`, the inhibition of disassembly result was “inactive”.

For the compound `Cc1ccc2nc(NC(=O)C3CCCN(S(=O)(=O)c4cccc5nsnc45)C3)sc2c1` (stereo unspecified), the inhibition of disassembly result was “inactive”.

Regarding `CC(=O)N1C(=O)C(=C2C=C(C)OC(C)=C2)c2ccccc21`, the EC50 is 61.7 µM.

Consider `Cc1noc(/C=C/c2ccco2)c1S(=O)(=O)N1CCC(C(=O)N2CCc3ccccc3C2)CC1`, for which the inhibition of disassembly result is “inactive”.

Regarding `O=C1CC(c2ccccc2)Cc2nc(N3CCc4ccccc43)ncc21` (stereo unspecified), the inhibition of disassembly result was “inactive”.

As to `CCN(CC)c1ccc(-c2c(C#N)c(N)nc(OC)c2C#N)cc1`, the inhibition of disassembly result is “inactive”.
